Measurements from paper PMC9950745, “A novel promising laccase from the psychrotolerant and halotolerant Antarctic marine Halomonas sp. M68 strain” (Frontiers in Microbiology, 2023).

Test system: T1, Ant laccase
T1 construct: gene copA
Test: spectrophotometric oxidation assay at […] nm, Michaelis-Menten fit
Type: biochemical
Settings: 50 mM sodium acetate, pH 5.0, 20°C; partially purified preparation SNP30

Work on `CCn1c(=NN=c2sc3cc(S(=O)(=O)O)ccc3n2CC)sc2cc(S(=O)(=O)O)ccc21` [ABTS, 2,2′-azino-bis (3-ethylbenzothiazoline-6-sulfonic acid)] yielded a Km of ~2000 µM.
